Experimental data from paper PMC8621208, “Antiseptic 9-Meric Peptide with Potency against Carbapenem-Resistant Acinetobacter baumannii Infection” (International Journal of Molecular Sciences, 2021).
Converted amounts (≈) assume the structure as drawn. Like-named read-outs stand apart in the source and are kept apart here. Where a SMILES comes first, the peptide text is derived from it. [ ]: non-standard residue; d: D form.

Columns and labels:
CRAB C1 = assay: microbe, parasite or virus in culture; conditions: CRAB C1
Source text: (§1) Escherichia coli KCTC 1682 was obtained from the Korean Collection for Type Cultures (KCTC) (Jeongeup-si, Korea), Acinetobacter baumannii KCCM 40203, Pseudomonas aeruginosa KCCM 11328 from the Korea Culture Center of Microorganisms (KCCM) (Seoul, Korea). Klebsiella pneumoniae NCCP 16054 were obtained from the National Culture Collection for Pathogens (NCCP) (Osong, Korea). Additionally, two carbapenem-resistant E. coli (CREC E1 and E2), 11 carbapenem-resistant A. baumannii (CRAB C0–C10) and two carbapenem-resistant K. pneumoniae (CRKP K1 and K2) were isolated from the patients, who presented symptoms and signs of infection at Korea University Anam Hospital (Seoul, Korea) (IRB registration no. 2020AN0157, 4 March 2021). CRAB C0–C10 have the OXA-23 gene with carbapenem-resistance.
(§2) The minimum inhibitory concentrations (MIC) were determined using broth dilution method. Briefly, all the mentioned bacterial strains were grown overnight at 37 °C by Muller–Hinton (MH) media. […] After 16 h incubation, the bacterial growth was read at 600 nm using a SpectraMAX microplate reader (Molecular Devices, San Jose, CA, USA).

CRAB C8 = assay: microbe, parasite or virus in culture; conditions: CRAB C8
Source text: as §1, §2

K. pneumoniae = assay: microbe, parasite or virus in culture; conditions: K. pneumoniae; 16 h, MH media
Source text: as §1, §2

[1] = test system: sheep red blood cells (sRBC); assay: Hemolytic assay; type: cell-based; conditions: 100 μM
Description: The peptide-induced toxicity was determined by hemolytic against Sheep red blood cells (sRBC). Briefly, Fresh sRBC were washed at least three times with phosphate-buffered saline (PBS) and the debris were removed by centrifugation (1000× g for 5 min, 4 °C). All the peptides including melittin control (0.2–100 μM) and positive control (1% (v/v) triton X-100) were incubated with 4% (v/v) sRBC for 1 h at 37 °C followed by centrifugation at 1000× g for 5 min. The supernatant was measured at 405 nm using a microplate reader.

CRAB C0 [2] = type: cell-based, carbapenem-resistant A. baumannii; conditions: peptide pre-incubated 6 h at 37 °C
Description: (§3) All the peptides at their MICs were pre-incubated with proteolytic enzymes such as trypsin and α-chymotrypsin (10,000:1; peptide: enzyme ratio) for 6 h at 37 °C. Then, 100 μL of peptide-protease cocktail was added to the 100 µL bacterial suspension (E. coli, A. baumannii and CRAB C0, 2 × 10^5 CFU/mL) and further incubated for 16 h at 37 °C. Bacterial suspension without peptide and protease served as negative control. The analysis was repeated at three times using independent experiments, and the degree of bacterial growth was measured at 600 nm using a microplate reader.

A. baumannii [3] = type: cell-based, Acinetobacter baumannii; conditions: peptide pre-incubated 6 h at 37 °C
Description: as §3

E. coli [4] = type: cell-based, Escherichia coli; conditions: peptide pre-incubated 6 h at 37 °C
Description: as §3

CRAB C4 = assay: MIC, broth dilution; type: cell-based, carbapenem-resistant A. baumannii; conditions: read-out: Minimal Inhibitory Concentration (MIC)
Source text: as §1, §2

CRAB C0 [5] = assay: MIC, broth dilution; type: cell-based, carbapenem-resistant A. baumannii; conditions: read-out: Minimal Inhibitory Concentration (MIC)
Source text: as §1, §2

CRAB C10 = assay: MIC, broth dilution; type: cell-based, carbapenem-resistant A. baumannii; conditions: read-out: Minimal Inhibitory Concentration (MIC)
Source text: as §1, §2

CRAB C6 = assay: MIC, broth dilution; type: cell-based, carbapenem-resistant A. baumannii; conditions: read-out: Minimal Inhibitory Concentration (MIC)
Source text: as §1, §2

CRAB C9 = assay: MIC, broth dilution; type: cell-based, carbapenem-resistant A. baumannii; conditions: read-out: Minimal Inhibitory Concentration (MIC)
Source text: as §1, §2

CRAB C7 = assay: MIC, broth dilution; type: cell-based, carbapenem-resistant A. baumannii; conditions: read-out: Minimal Inhibitory Concentration (MIC)
Source text: as §1, §2

CRAB C2 = assay: MIC, broth dilution; type: cell-based, carbapenem-resistant A. baumannii; conditions: read-out: Minimal Inhibitory Concentration (MIC)
Source text: as §1, §2

CRAB C3 = assay: MIC, broth dilution; type: cell-based, carbapenem-resistant A. baumannii; conditions: read-out: Minimal Inhibitory Concentration (MIC)
Source text: as §1, §2

CRAB C5 = assay: MIC, broth dilution; type: cell-based, carbapenem-resistant A. baumannii; conditions: read-out: Minimal Inhibitory Concentration (MIC)
Source text: as §1, §2

A. baumannii [6] = assay: MIC, broth dilution; type: cell-based, Acinetobacter baumannii KCCM 40203; conditions: 16 h, MH media, read-out: Minimal Inhibitory Concentration (MIC)
Source text: as §1, §2

E. coli [7] = assay: MIC, broth dilution; type: cell-based, Escherichia coli KCTC 1682; conditions: E. coli; 16 h, MH media; read-out: Minimal Inhibitory Concentration (MIC)
Source text: as §1, §2

[8] = In vivo toxicity, serum AST, ALT, BUN; set-up: species or system ICR mice; conditions: mice, 1 and 5 mg/kg i.p., 24 h
Description: Control mice received phosphate-buffered saline only and the treatment was performed for 24 h. (B) R-Pro9-3D prolonged the survival rate of mice infected with CRAB C0. […] In sepsis model, mice (5 mice per group) were treated with R-Pro9-3D (1 mg/kg) for 1 h and the antiseptic analyses were evaluated after CRAB C0 (6 × 10^6 CFU/mouse, 16 h) infection. (C) R-Pro9-3D restricted the bacterial entry in the lung, liver, and kidneys. The corresponding organ lysates were plated onto agar plates and the total no of bacterial colonies were scored. (D) R-Pro9-3D effectively normalized the endotoxin levels in CRAB C0-infected mice. (E–G) Effect of R-Pro9-3D on serum levels of AST, ALT and BUN. (H–K) R-Pro9-3D inhibited the production of inflammatory cytokines (TNF-α and IL-6) in the serum and lung lysates of CRAB C0-infected mice, as measured by enzyme-linked immunosorbent assay (ELISA). (L) Photomicrograph show the modulatory effect of R-Pro9-3D on neutrophil infiltration in the hematoxylin and eosin (H&E)-stained lung tissues (Magnification 20×, Scale bar 100 μm). […] Values are expressed as mean ± SEM (Five mice per group). […]
The ICR mice (n = 5 per group) were intraperitoneally (i.p.) injected with R-Pro9-3D (1 mg and 5 mg/kg/day in PBS) and the serum levels of AST, ALT, and BUN levels were determined using a standard kit from Asan Pharmaceutical as described previously.

With `CC[C@@H](C)[C@@H](NC(=O)[C@@H](Cc1c[nH]c2ccccc12)NC(=O)[C@@H](CCCNC(=N)N)NC(=O)[C@H](N)CCCNC(=N)N)C(=O)N[C@H](C)C(=O)N[C@H](CC(C)C)C(=O)N[C@H](Cc1c[nH]c2ccccc12)C(=O)N[C@H](CC(C)C)C(=O)N[C@H](CCCNC(=N)N)C(N)=O` [R-Pro9-3D, rrwialwlr-NH2] (H-[dR][dR][dW][dI][dA][dL][dW][dL][dR]-NH2) the “Minimal Inhibitory Concentration (MIC)” value (CRAB C1) was 8 µM, the “Minimal Inhibitory Concentration (MIC)” value (CRAB C8) was 4 µM and the “Minimal Inhibitory Concentration (MIC)” value (K. pneumoniae) was 8 µM. For the same compound, the Hemolytic activity [1] was 1.2%, the “Minimal Inhibitory Concentration (MIC)” value (CRAB C0 [2]; CRAB C0 + Trypsin) was 4 µM and the “Minimal Inhibitory Concentration (MIC)” value (CRAB C0 [2]; CRAB C0 + α-Chymotrypsin) was 4 µM. For the same compound, the “Minimal Inhibitory Concentration (MIC)” value (A. baumannii [3]; A. baumannii + Trypsin) was 4 µM, the “Minimal Inhibitory Concentration (MIC)” value (A. baumannii [3]; A. baumannii + α-Chymotrypsin) was 4 µM and the “Minimal Inhibitory Concentration (MIC)” value (E. coli [4]; E. coli + Trypsin) was 8 µM. For the same compound, the “Minimal Inhibitory Concentration (MIC)” value (E. coli [4]; E. coli + α-Chymotrypsin) was 8 µM, the MIC (CRAB C4) was 4 µM (≈ 5.07 µg/mL) and the MIC (CRAB C0 [5]) was 4 µM (≈ 5.07 µg/mL). The MIC (CRAB C10) was 4 µM (≈ 5.07 µg/mL), the MIC (CRAB C6) was 4 µM (≈ 5.07 µg/mL) and the MIC (CRAB C9) was 4 µM (≈ 5.07 µg/mL). For the same compound, the MIC (CRAB C7) was 4 µM (≈ 5.07 µg/mL), the MIC (CRAB C2) was 4 µM (≈ 5.07 µg/mL) and the MIC (CRAB C3) was 8 µM (≈ 10.1 µg/mL). For the same compound, the MIC (CRAB C5) was 4 µM (≈ 5.07 µg/mL), the MIC (A. baumannii [6]) was 4 µM (≈ 5.07 µg/mL) and the MIC (E. coli [7]) was 8 µM (≈ 10.1 µg/mL). The “Serum levels of AST, ALT and BUN” value [8] was “Neither dose of R-Pro9-3D elevated the levels of these enzymes”.
